Measurements as given in patent US5019385A, “Novel lymphopine LK 2 and pharmaceutic compositions containing same” (Kabushiki Kaisha Hayashibara Seibutsu Kagaku Kenkyujo, priority 1984, dated 1991).
Structures can show the parent of a compound that is named as a salt.

Columns and labels:
HEp#2 = assay: enhancement of antioncotic effect of chemotherapeutics by LK 2 (Experiment C-1, Table V); type: cell-based, human; details: ACNU 1.0×10^-6, 5-FU 1.5×10^-8, ADM 1.0×10^-10, MMC 2.5×10^-9 g/ml culture, VCR 1.5×10^-10 g/culture
Description: (§1) One human malignant tumor cell suspension (10^6 cells) was inoculated on 1 ml of conventional-type nutrient culture medium supplemented with foetal calf serum, and then cultured for one day. Thereafter, there was added to the culture 0.1 ml of saline containing 100 units of an LK 2 specimen, prepared by the method in Experiment A-3, and/or a chemotherapeutic, and cultured for an additional two days at 37° C.
(§2) As the control, an LK 2- and chemotherapeutic-free saline was used.
(§3) After completion of the culture, the number of viable cells was counted in accordance with the method in Experiment B-1, and the growth inhibition (%) was then determined.
(§4) The concentrations of the tested chemotherapeutics were as follows: nimustine hydrochloride (ACNU), 1.0×10^-6 g/ml culture; fluorouracil (5-FU), 1.5×10^-8 g/ml culture; doxorubicin (ADM), 1.0×10^-10 g/ml culture; mitomycin C (MMC), 2.5×10^-9 g/ml culture; and vincristine sulfate (VCR), 1.5×10^-10 g/culture.

HLE = assay: as above; type: cell-based, human; details: ACNU 1.0×10^-6, 5-FU 1.5×10^-8, ADM 1.0×10^-10, MMC 2.5×10^-9 g/ml culture, VCR 1.5×10^-10 g/culture
Description: as §1, §2, §3, §4

MKN 7 = assay: as above; type: cell-based, human; details: ACNU 1.0×10^-6, 5-FU 1.5×10^-8, ADM 1.0×10^-10, MMC 2.5×10^-9 g/ml culture, VCR 1.5×10^-10 g/culture
Description: as §1, §2, §3, §4

PC-8 = assay: as above; type: cell-based, human; details: ACNU 1.0×10^-6, 5-FU 1.5×10^-8, ADM 1.0×10^-10, MMC 2.5×10^-9 g/ml culture, VCR 1.5×10^-10 g/culture
Description: as §1, §2, §3, §4

HeLa = assay: as above; type: cell-based, human; details: ACNU 1.0×10^-6, 5-FU 1.5×10^-8, ADM 1.0×10^-10, MMC 2.5×10^-9 g/ml culture, VCR 1.5×10^-10 g/culture
Description: as §1, §2, §3, §4

[1] = tested on: human breast cancer tissue; assay: tumor mass in nude mice, LK 2 and/or mitomycin C (Experiment C-2, Table VI); type: in vivo, human tissue in BALB/c nude mice; details: MMC 1 mg/kg per day i.v., twenty days; control 10.8 ± 1.0; * significant vs control (5%)
Description: A group of BALB/c nude mice was transplanted subcutaneously in their dorsum areas with small fragments of human breast cancer tissue.
After the tumor masses grew to about 200 mm^3 in the bodies of the animals, saline containing an LK 2 preparation, obtained by the method described in Experiment A-3, and/or mitomycin C (MMC) was injected intravenously once every day for twenty days.
Thereafter, the animals were sacrificed, and the resultant tumor masses were weighed.
as §2

Structure (SMILES) | growth inhibition (%) to tumor cell (HEp#2; +, with LK 2 100 units) | growth inhibition (%) to tumor cell (HEp#2; -, without LK 2) | growth inhibition (%) to tumor cell (HLE; +, with LK 2 100 units) | growth inhibition (%) to tumor cell (HLE; -, without LK 2) | growth inhibition (%) to tumor cell (MKN 7; +, with LK 2 100 units) | growth inhibition (%) to tumor cell (MKN 7; -, without LK 2) | growth inhibition (%) to tumor cell (PC-8; +, with LK 2 100 units) | growth inhibition (%) to tumor cell (PC-8; -, without LK 2) | growth inhibition (%) to tumor cell (HeLa; +, with LK 2 100 units) | growth inhibition (%) to tumor cell (HeLa; -, without LK 2) | Tumor mass [1]
CC[C@]1(O)C[C@H]2CN(CCc3c([nH]c4ccccc34)[C@@](C(=O)OC)(c3cc4c(cc3OC)N(C=O)[C@H]3[C@@](O)(C(=O)OC)[C@H](OC(C)=O)[C@]5(CC)C=CCN6CC[C@]43[C@@H]65)C2)C1 (stereo in doubt) [VCR, vincristine sulfate] | 66% | 5% | 69% | 10% | 70% | 6% | 72% | 8% | 63% | 10% | 
O=c1[nH]cc(F)c(=O)[nH]1 [5-FU, fluorouracil] | 80% | 8% | 81% | 8% | 77% | 6% | 85% | 10% | 69% | 12% | 
Cc1ncc(CNC(=O)N(CCCl)N=O)c(N)n1 [ACNU, nimustine hydrochloride] | 67% | 4% | 75% | 5% | 73% | 4% | 71% | 2% | 71% | 5% | 
COc1cccc2c1C(=O)c1c(O)c3c(c(O)c1C2=O)C[C@@](O)(C(=O)CO)C[C@@H]3O[C@H]1C[C@H](N)[C@H](O)[C@H](C)O1 [ADM, doxorubicin] | 70% | 13% | 73% | 7% | 69% | 5% | 71% | 6% | 62% | 7% | 
CO[C@@]12[C@H](COC(N)=O)C3=C(C(=O)C(C)=C(N)C3=O)N1C[C@@H]1N[C@@H]12 [MMC, mitomycin C] | 72% | 10% | 74% | 12% | 73% | 3% | 68% | 5% | 61% | 7% | 5.1 ± 0.4 g
